Patent US20230270112A1, “A METHOD OF DI[…] GASEOUS ENVIRONMENT, A LIQUID, OR A SOLID SURFACE” (priority 2020, published 2023)
Like-named read-outs stand apart in the source and are kept apart here.

Tests used:
[1] = with cucurbit[7]uril; cited from earlier work
[2] = system: herpes simplex virus serotype two (HSV-2); test: Titration by TCID50 assay (incl. guest-host chemistry assay); assay type: cell-based; conditions: mixed with the virus for 5 minutes, FIG. 3a
[3] = system: respiratory syncytial virus (RSV); test: Titration by TCID50 assay; assay type: cell-based; conditions: FIG. 3b
[4] = system: herpes simplex virus serotype two (HSV-2); test: DNA exposure assay; conditions: FIG. 6
SARS-CoV-2 = assay type: cell-based
[5] = system: herpes simplex virus serotype two (HSV-2); test: Dose-response (plaque) assay; assay type: cell-based; conditions: FIG. 4a
[6] = system: respiratory syncytial virus (RSV); test: Dose-response (plaque) assay; assay type: cell-based; conditions: FIG. 4b
[7] = system: herpes simplex virus serotype two (HSV-2); test: Virucidal assay; assay type: cell-based; conditions: FIG. 5
[8] = system: herpes simplex virus serotype two (HSV-2); test: Time of addition study; assay type: cell-based; conditions: FIG. 7

NC12CC3CC(CC(C3)C1)C2 [ADA, 1-Adamantylamine]
binding affinity [1]: 1.7+/−0.8×10^14 M^−1

O=C1N2CN3C(=O)N4CN5C(=O)N6CN7C(=O)N8CN9C(=O)N%10CN%11C(=O)N%12CN1C1C2N2CN%13C(=O)N(CN%14C(=O)N(CN%15C(=O)N(CN%16C(=O)N(CN%17C(=O)N(CN1C2=O)C%12C%11%17)C%10C9%16)C8C7%15)C6C5%14)C4C3%13 (stereo not shown) [cucurbit[6]uril]
viral titre reduction [2]: lack of viral titre reduction | antiviral effect [3]: ineffective | DNA detected following viral exposure, DNAse and PCR amplification [4]: DNA was detected

O=C1N2CN3C(=O)N4CN5C(=O)N6CN7C(=O)N8CN9C(=O)N%10CN%11C(=O)N%12CN%13C(=O)N%14CN%15C(=O)N%16CN1C1C2N2CN%17C(=O)N(CN%18C(=O)N(CN%19C(=O)N(CN%20C(=O)N(CN%21C(=O)N(CN%22C(=O)N(CN%23C(=O)N(CN1C2=O)C%16C%15%23)C%14C%13%22)C%12C%11%21)C%10C9%20)C8C7%19)C6C5%18)C4C3%17 (stereo not shown) [cucurbit[8]uril, Cucurbit[8]uril]
viral titre reduction [2]: lack of viral titre reduction | antiviral effect [3]: ineffective | DNA detected following viral exposure, DNAse and PCR amplification [4]: No DNA was detected

cucurbit[7]uril
reduction in viral titre ([2]; 20-50 mg/mL): approximately 5 log | antiviral efficacy (SARS-CoV-2): largely ineffective | antiviral efficacy (SARS-CoV-2; 50 mg/mL): highly effective | EC50 [5]: 1270 µg/mL | EC50 [6]: 1070 µg/mL | mode of action (virucidal or virustatic) [7]: virucidal | viral inhibition ([8]; added after the virus has been exposed to the cells (post-infection)): no viral inhibition | antiviral effect ([8]; added directly to the virus before infection ('during infection')): an antiviral effect was observed | viral inhibition ([8]; removed prior to viral introduction (pre-treatment)): no viral inhibition
